Literature values as cited in patent publication EP0682945B1, “Oral sustained release preparation” (Lannacher Heilmittel Ges.m.b.H., priority 1994, dated 1995).

Details: orale Anwendung, im Mittel

Structure (SMILES): CN1CC[C@]23c4c5ccc(O)c4O[C@H]2[C@@H](O)C=C[C@H]3[C@H]1C5 [Morphin]
- Bioverfügbarkeit: 38%
